Data as given in US9073855B2, “BCL-2 selective apoptosis-inducing agents for the treatment of cancer and immune diseases” (AbbVie Inc., priority 2008, dated 2015).

How the values were obtained:
[1] = target: GST-Bcl-XL (Homo sapiens, UniProt Q07817); assay: TR-FRET binding assay, GST-Bcl-XL with F-Bak peptide probe; details: TR-FRET Binding Affinity
Description: (§1) Tb-anti-GST antibody was purchased from Invitrogen (Catalog No. PV4216).
(§2) Representative compounds were serially diluted in dimethyl sulfoxide (DMSO) starting at 50 μM (2× starting concentration; 10% DMSO) and 10 μL were transferred into a 384-well plate.
(§3) The samples were then mixed on a shaker for 1 minute and incubated for an additional 3 hours at room temperature. For each assay, the probe/antibody and protein/probe/antibody were included on each assay plate as negative and positive controls, respectively. Fluorescence was measured on the ENVISION plate reader (Perkin Elmer) using a 340/35 nm excitation filter and 520/525 (F-Bak peptide) and 495/510 nm (Tb-labeled […] antibody) emission filters.
(§4) The inhibition constant (Ki) is the dissociation constant of an enzyme-inhibitor complex or a protein/small molecule complex, wherein the small molecule is inhibiting binding of one protein to another protein or peptide. […] Inhibition constants were determined using Wang's equation (Wang Z-X., An Exact Mathematical Expression For Describing Competitive Binding Of Two Different Ligands To A Protein Molecule. FEBS Lett. 1995, 360:111-4).

[2] = target: GST-Bcl-2 (Homo sapiens, UniProt P10415); assay: TR-FRET binding assay, GST-Bcl-2 with F-Bak peptide probe; details: for Ki: TR-FRET Binding Affinity
GST-Bcl-2, sequence (P10415 whole entry): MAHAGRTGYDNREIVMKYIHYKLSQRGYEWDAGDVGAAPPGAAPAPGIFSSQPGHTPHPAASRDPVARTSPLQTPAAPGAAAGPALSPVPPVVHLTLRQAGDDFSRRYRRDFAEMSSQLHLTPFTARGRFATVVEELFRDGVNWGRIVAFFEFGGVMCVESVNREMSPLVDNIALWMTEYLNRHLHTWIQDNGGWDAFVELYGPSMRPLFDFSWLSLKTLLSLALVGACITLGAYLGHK
Description: as §1, §2, §3, §4

[3] = GST-Bcl-XL, F-Bak peptide probe
[4] = TR-FRET, Bcl-XL Ki divided by Bcl-2 Ki
[5] = ratio of TR-FRET Ki values, Bcl-XL over Bcl-2

GST-Bcl-XL, sequence (Q07817 whole entry): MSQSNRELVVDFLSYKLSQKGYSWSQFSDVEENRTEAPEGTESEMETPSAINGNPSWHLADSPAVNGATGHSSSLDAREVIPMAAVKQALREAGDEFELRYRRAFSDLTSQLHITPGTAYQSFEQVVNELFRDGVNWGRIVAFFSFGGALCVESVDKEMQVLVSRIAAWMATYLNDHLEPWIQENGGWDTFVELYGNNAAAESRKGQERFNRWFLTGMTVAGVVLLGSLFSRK

Row | Structure (SMILES) | Ki [1, 3] | Ki ([2]; GST-Bcl-2, F-Bak peptide probe) | Ki [1] | Ki [2] | Binding selectivity ratio (Bcl-XL Ki/Bcl-2 Ki) [2, 4] | Binding selectivity ratio (Bcl-XL Ki/Bcl-2 Ki) [2, 5]
1 | O=C(NS(=O)(=O)c1ccc(NC2CCN(S(=O)(=O)c3cccc4cccnc34)CC2)c([N+](=O)[O-])c1)c1ccc(N2CCN(Cc3ccccc3-c3ccc(Cl)cc3)CC2)cc1Oc1ccccc1 [Example 158, 4-{4-[(4′-chloro-1,1′-biphenyl-2-yl)methyl]piperazin-1-yl}-N-[(3-nitro-4-{[1-(quinolin-8-ylsulfonyl)piperidin-4-yl]amino}phenyl)sulfonyl]-2-phenoxybenzamide] | > 660 nM | 64.8 nM |  |  |  | 
2 | O=C(NS(=O)(=O)c1ccc(NCC2CCOCC2)c([N+](=O)[O-])c1)c1ccc(N2CCN(CC3=C(c4ccc(Cl)cc4)CCC(F)(F)C3)CC2)cc1Oc1cccc2[nH]ncc12 [Example 524, 4-(4-{[2-(4-chlorophenyl)-5,5-difluorocyclohex-1-en-1-yl]methyl}piperazin-1-yl)-2-(1H-indazol-4-yloxy)-N-({3-nitro-4-[(tetrahydro-2H-pyran-4-ylmethyl)amino]phenyl}sulfonyl)benzamide] |  |  | 22.2 nM | < 0.01 nM | >2218.4 | 
3 | CO[C@H]1CC[C@H](CNc2ccc(S(=O)(=O)NC(=O)c3ccc(N4CCN(CC5=C(c6ccc(Cl)cc6)CC(C)(C)CC5)CC4)cc3Oc3cccc4[nH]ncc34)cc2[N+](=O)[O-])CC1 [Example 446, Trans-4-(4-{[2-(4-chlorophenyl)-4,4-dimethylcyclohex-1-en-1-yl]methyl}piperazin-1-yl)-2-(1H-indazol-4-yloxy)-N-[(4-{[(4-methoxycyclohexyl)methyl]amino}-3-nitrophenyl)sulfonyl]benzamide] |  |  | 19.3 nM | 0.038 nM | 508.4 | 
4 | CC1(C)CCC(CN2CCN(c3ccc(C(=O)NS(=O)(=O)c4cnc(NC5CCN(C6CC6)CC5)c(Cl)c4)c(Oc4cccc5[nH]cnc45)c3)CC2)=C(c2ccc(Cl)cc2)C1 [Example 449, 2-(1H-benzimidazol-4-yloxy)-N-({5-chloro-6-[(1-cyclopropylpiperidin-4-yl)amino]pyridin-3-yl}sulfonyl)-4-(4-{[2-(4-chlorophenyl)-4,4-dimethylcyclohex-1-en-1-yl]methyl}piperazin-1-yl)benzamide] |  |  | 17.8 nM | 0.24 nM | 74.4 | 
5 | CC1(C)CCC(CN2CCN(c3ccc(C(=O)NS(=O)(=O)c4ccc(OCC5(F)CCOCC5)c(C#N)c4)c(Oc4cccc5[nH]ncc45)c3)CC2)=C(c2ccc(Cl)cc2)C1 [Example 501, 4-(4-{[2-(4-chlorophenyl)-4,4-dimethylcyclohex-1-en-1-yl]methyl}piperazin-1-yl)-N-({3-cyano-4-[(4-fluorotetrahydro-2H-pyran-4-yl)methoxy]phenyl}sulfonyl)-2-(1H-indazol-4-yloxy)benzamide] |  |  | 163 nM | 0.027 nM | 6025.7 | 
6 | CC1(C)CCC(CN2CCN(c3ccc(C(=O)NS(=O)(=O)c4cnc(OC[C@@H]5CCN(CC(F)F)C5)c(Cl)c4)c(Oc4cccc5[nH]ncc45)c3)CC2)=C(c2ccc(Cl)cc2)C1 [Example 445, N-[(5-chloro-6-{[(3R)-1-(2,2-difluoroethyl)pyrrolidin-3-yl]methoxy}pyridin-3-yl)sulfonyl]-4-(4-{[2-(4-chlorophenyl)-4,4-dimethylcyclohex-1-en-1-yl]methyl}piperazin-1-yl)-2-(1H-indazol-4-yloxy)benzamide] |  |  | 13.6 nM | 0.028 nM | 484.2 | 
7 | CO[C@H]1CC[C@H](COc2ncc(S(=O)(=O)NC(=O)c3ccc(N4CCN(CC5=C(c6ccc(Cl)cc6)CC(C)(C)CC5)CC4)cc3Oc3cccc4[nH]ncc34)cc2Cl)CC1 [Example 414, Trans-N-({5-chloro-6-[(4-methoxycyclohexyl)methoxy]pyridin-3-yl}sulfonyl)-4-(4-{[2-(4-chlorophenyl)-4,4-dimethylcyclohex-1-en-1-yl]methyl}piperazin-1-yl)-2-(1H-indazol-4-yloxy)benzamide] | 95.6 nM | 0.007 nM |  |  |  | 
8 | CC1(C)CCC(CN2CCN(c3ccc(C(=O)NS(=O)(=O)c4ccc(OCC5CCOCC5)c(Cl)c4)c(Oc4cccc5[nH]cnc45)c3)CC2)=C(c2ccc(Cl)cc2)C1 [Example 516, 2-(1H-benzimidazol-4-yloxy)-4-(4-{[2-(4-chlorophenyl)-4,4-dimethylcyclohex-1-en-1-yl]methyl}piperazin-1-yl)-N-{[3-chloro-4-(tetrahydro-2H-pyran-4-ylmethoxy)phenyl]sulfonyl}benzamide] |  |  | 4.82 nM | < 0.01 nM | >482.3 | 
9 | CC1(C)CCC(CN2CCN(c3ccc(C(=O)NS(=O)(=O)c4cnc(OCC5COCCO5)c(Cl)c4)c(Oc4cccc5[nH]ncc45)c3)CC2)=C(c2ccc(Cl)cc2)C1 (stereo not shown) [Example 488, N-{[5-chloro-6-(1,4-dioxan-2-ylmethoxy)pyridin-3-yl]sulfonyl}-4-(4-{[2-(4-chlorophenyl)-4,4-dimethylcyclohex-1-en-1-yl]methyl}piperazin-1-yl)-2-(1H-indazol-4-yloxy)benzamide] |  |  | 23.5 nM | < 0.01 nM | >2345.9 | 
10 | O=C(NS(=O)(=O)c1cnc(OCC2(F)CCN(C3COC3)CC2)c(Cl)c1)c1ccc(N2CCN(CC3=C(c4ccc(Cl)cc4)CCC(F)(F)C3)CC2)cc1Oc1cccc2[nH]ncc12 [Example 522, N-[(5-chloro-6-{[4-fluoro-1-(oxetan-3-yl)piperidin-4-yl]methoxy}pyridin-3-yl)sulfonyl]-4-(4-{[2-(4-chlorophenyl)-5,5-difluorocyclohex-1-en-1-yl]methyl}piperazin-1-yl)-2-(1H-indazol-4-yloxy)benzamide] |  |  | 2.08 nM | < 0.01 nM | >207.9 | 
11 | CN(C)CCCNc1ccc(S(=O)(=O)NC(=O)c2ccc(N3CCN(Cc4ccccc4-c4ccc(Cl)cc4)CC3)cc2Oc2ccc3[nH]ccc3c2)cc1S(=O)(=O)C(F)(F)F [Example 64, 4-{4-[(4′-chloro-1,1′-biphenyl-2-yl)methyl]piperazin-1-yl}-N-({4-{[3-(dimethylamino)propyl]amino}-3-[(trifluoromethyl)sulfonyl]phenyl}sulfonyl)-2-(1H-indol-5-yloxy)benzamide] | 40.3 nM | 0.523 nM |  |  |  | 
12 | CN1CCC(Nc2ccc(S(=O)(=O)NC(=O)c3ccc(N4CCN(CC5=C(c6ccc(Cl)cc6)CC(C)(C)CC5)CC4)cc3Oc3cccc4[nH]cnc34)cc2[N+](=O)[O-])CC1 [Example 418, 2-(1H-benzimidazol-4-yloxy)-4-(4-{[2-(4-chlorophenyl)-4,4-dimethylcyclohex-1-en-1-yl]methyl}piperazin-1-yl)-N-({4-[(1-methylpiperidin-4-yl)amino]-3-nitrophenyl}sulfonyl)benzamide] | 1.57 nM | 0.004 nM |  |  |  | 404.7
13 | CN(C)CCCOc1ccc(-c2ccc(Cl)cc2)c(CN2CCN(c3ccc(C(=O)NS(=O)(=O)c4ccc(NCC5CCOCC5)c([N+](=O)[O-])c4)c(Oc4ccccc4)c3)CC2)c1 [Example 116, 4-[4-({4′-chloro-4-[3-(dimethylamino)propoxy]-1,1′-biphenyl-2-yl}methyl)piperazin-1-yl]-N-({3-nitro-4-[(tetrahydro-2H-pyran-4-ylmethyl)amino]phenyl}sulfonyl)-2-phenoxybenzamide] | 8.3 nM | 0.036 nM |  |  |  | 
14 | COC(=O)N1CCOC(CNc2ccc(S(=O)(=O)NC(=O)c3ccc(N4CCN(CC5=C(c6ccc(Cl)cc6)CC(C)(C)CC5)CC4)cc3Oc3cccc4[nH]ncc34)cc2[N+](=O)[O-])C1 (stereo not shown) [Example 505, methyl 2-{[(4-{[4-(4-{[2-(4-chlorophenyl)-4,4-dimethylcyclohex-1-en-1-yl]methyl}piperazin-1-yl)-2-(1H-indazol-4-yloxy)benzoyl]sulfamoyl}-2-nitrophenyl)amino]methyl}morpholine-4-carboxylate] |  |  | 4.86 nM | < 0.01 nM | >486.1 | 
15 | CC1(C)CCC(CN2CCN(c3ccc(C(=O)NS(=O)(=O)c4ccc(N[C@@H]5CCN(CC#N)C5)c([N+](=O)[O-])c4)c(Oc4cccc5[nH]cnc45)c3)CC2)=C(c2ccc(Cl)cc2)C1 [Example 428, 2-(1H-benzimidazol-4-yloxy)-4-(4-{[2-(4-chlorophenyl)-4,4-dimethylcyclohex-1-en-1-yl]methyl}piperazin-1-yl)-N-[(4-{[(3R)-1-(cyanomethyl)pyrrolidin-3-yl]amino}-3-nitrophenyl)sulfonyl]benzamide] | 15.6 nM | 0.003 nM |  |  |  | 5832.2
16 | CN(C)CCCNc1ccc(S(=O)(=O)NC(=O)c2ccc(N3CCN(Cc4ccccc4-c4ccc(Cl)cc4)CC3)cc2Oc2cccc3cnccc23)cc1[N+](=O)[O-] [Example 42, 4-{4-[(4′-chloro-1,1′-biphenyl-2-yl)methyl]piperazin-1-yl}-N-[(4-{[3-(dimethylamino)propyl]amino}-3-nitrophenyl)sulfonyl]-2-(isoquinolin-5-yloxy)benzamide] | 3.84 nM | 0.048 nM |  |  |  | 
